The source of these data is patent US20210228463A1, “COMPOSITION FOR FAT FORMATION INHIBITION AND BODY FAT REDUCTION, CONTAINING HYDRANGENOL AS ACTIVE INGREDIENT” (COSMAX BIO CO., LTD., priority 2019, published 2021).

In data set [1] the test system is mammalian target of rapamycin (mTOR). Put plainly: Western blotting of p-mTOR in adipocytes. To be noted: 3T3-L1 differentiated for 10 days, hydrangenol 2.5 ug/ml, 24 hours, FIG. 3. It counts as cell-based. The method, then: (§1) The mechanism of reducing triglyceride in adipocytes was examined for the hydrangenol-containing hydrangea (Hydrangea serrata) and hydrangenol. A pre-adipocyte 3T3-L1 was differentiated for 10 days and treated with hydrangea (Hydrangea serrata) (25 ug/ml) and hydrangenol (2.5 ug/ml) for 24 hours, respectively. Thereafter, the cells were lysed using a modified LIPA buffer, and each 20 ug thereof was used for analysis. p-mTOR(ab109268, Abcam), p-FOXO1(9461S, Cell Signaling), PPARγ(sc-7273, Santa Cruz), and β-actin(A5316, Sigma) primary antibodies were used for analysis, respectively.
Background: In western blotting, separated proteins are transferred to a membrane and probed.

For another data set, the system named is PPARγ. Put plainly: Western blotting of PPARγ expression in adipocytes. The data set is classed as cell-based. As to conditions: 3T3-L1 differentiated for 10 days, hydrangenol 2.5 ug/ml, 24 hours, FIG. 3. The method, then:
as §1

For a further data set, the system named is AMPK. The experiment in a line: Expression of p-AMPK protein in adipose and liver tissues by HG. The data set is classed as in vivo, mice. As to conditions: HG-treated group, Western blotting, FIG. 18. The method, then: To analyze in vivo anti-obesity efficacy of HG, animal models of obesity were prepared. 8-week-old male C57BL/6N mice (SPF grade, 20±2 g, Orient Bio) were set into 7 groups as follows, and 10 mice per each group were tested: as normal control groups, normal mice (con) with no high fat diet and no administration, and obese mice (HFD) with induction of obesity by 30% high fat diet and no administration, and as a positive control group, obese mice with oral administration of orlistat which is an anti-obesity agent. As experimental groups, obese mice with oral administration of HG of 20 mg/kg, 40 mg/kg, or 80 mg/kg, and normal mice with oral administration of HG of 80 mg/kg were used. Mice were administered with HG at the same time with induction of obesity, and HG was administered for 5 days per week for 12 weeks. A dark: light cycle was maintained at intervals of 12 hours: 12 hours, and mice were allowed to free access to water. […]
Specifically, adipose and liver tissues were mixed with a protein extraction solution, homogenized using a tissue homogenizer, and then centrifuged at 4° C., 15,000 rpm for 30 minutes to obtain a supernatant, and then a standard curve was created using the Bradford method to quantify protein. […]

Data set [2] can be described thus: Effects of WHS on liver and kidney (serum GOT, GPT, BUN). It counts as in vivo. As to conditions: obese mice (HFD) + oral orlistat. The method, then:
(§2) To analyze in vivo anti-obesity efficacy of WHS, animal models of obesity were first prepared. 8-week-old male C57BL/6N mice (specific-pathogen-free (SPF) grade, 20±2 g, Orient Bio) were set into 7 groups as follows, and 10 mice per each group were tested: as normal control groups, normal mice (con) with no high fat diet and no administration, and obese mice (HFD) with induction of obesity by 30% high fat diet and no administration, and as a positive control group, obese mice with oral administration of orlistat which is an anti-obesity agent. As experimental groups, obese mice with oral administration of WHS of 75 mg/kg, 150 mg/kg, or 300 mg/kg, and normal mice with oral administration of WHS of 300 mg/kg were used. Further, experiments were performed by dividing mice into those which were administered with WHS for 12 weeks at the same time with induction of obesity, and those which were administered with WHS after induction of obesity for 10 weeks. WHS was orally administered for 5 days per week during the administration period. A dark: light cycle was maintained at intervals of 12 hours: 12 hours, and mice were allowed to free access to water. To examine whether WHS induced liver and kidney damage in mice, glutamic oxalacetic transaminase (GOT), glutamic pyruvate transaminase (GPT), and blood urea nitrogen (BUN) of the WHS-administered group with induction of obesity were measured by serum analysis using a biochemical analyzer (AU480 Chemistry Analyzer, Beckman coulter, Calif., USA).

The nature of data set [3]: Changes of blood triglyceride and blood cholesterol by WHS. The data set is classed as in vivo. To be noted: blood, obese mice (HFD) + oral orlistat. The method, then: as §2, with “analyze the effects of” for “examine whether”, “on blood triglyceride” for “induced liver and kidney damage in mice, glutamic oxalacetic transaminase (GOT), glutamic pyruvate transaminase (GPT),”, “cholesterol, a hematological-biochemical test” for “urea nitrogen (BUN)”, “was performed” for “were measured by serum analysis”

Take `O=C1OC(c2ccc(O)cc2)Cc2cccc(O)c21` (stereo not shown) [HG, 8-hydroxy-3-(4-hydroxyphenyl)-3,4-dihydroisochromen-1-one]: the “phosphorylation of mammalian target of rapamycin (mTOR)” value in data set [1] is given as “reduce”. Moreover, the “expression level of peroxisome proliferator-activated receptor gamma y (PPAR)” value in the data set with PPARγ is recorded as “reduction”. In the data set with AMPK, the “amount of phosphorylated AMPK protein” value was “increased”.

Regarding `CCCCCCCCCCC[C@@H](C[C@@H]1OC(=O)[C@H]1CCCCCC)OC(=O)[C@H](CC(C)C)NC=O` [Orlistat, orlistat], in data set [2], the BUN was 19.89 mg/dL, the GOT amounted to 63 U/L and the GPT was found to be 17.6 U/L. Also, in data set [3], the CHOL was determined as 115.63 mg/dL, the HDL amounted to 83.70 mg/dL, the LDL is 8.60 mg/dL and the TG was 76.40 mg/dL.
